For the assay, the target named is T1, hGPR120 (Homo sapiens, UniProt Q5NUL3).
T1 construct: expressed in transfected cells; host or cells: CHO-K1
T1 sequence (Q5NUL3 1-361): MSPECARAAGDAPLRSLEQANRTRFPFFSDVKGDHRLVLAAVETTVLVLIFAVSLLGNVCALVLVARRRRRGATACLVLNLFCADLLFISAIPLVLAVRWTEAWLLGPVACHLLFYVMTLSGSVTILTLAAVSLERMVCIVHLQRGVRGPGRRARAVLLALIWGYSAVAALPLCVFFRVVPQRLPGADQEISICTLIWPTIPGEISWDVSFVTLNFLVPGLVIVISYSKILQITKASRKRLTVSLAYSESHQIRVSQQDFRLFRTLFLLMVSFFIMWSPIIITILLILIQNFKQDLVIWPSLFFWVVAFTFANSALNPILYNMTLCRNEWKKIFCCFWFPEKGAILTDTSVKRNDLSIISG
The experiment in a line: Measurement of Activity of GPR120 Agonist (Cell-Based Assay), Calcium 5 dye fluorescence. The conditions noted are these: CHO-K1 cells expressing Ga16 and hGPR120. An outline of the steps:
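CHO-K1 cells co-expressing Gα16 and hGPR120 were seeded, cultured 18 h at 37 °C, then loaded 1 h with Calcium 5 dye. Serially diluted agonists (final 0.5% DMSO) were added and fluorescence read at Ex 485/Em 525 nm, expressed as percent relative to 1% DMSO-only wells.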

The record followed here is patent US11261186B2, “Biaryl derivative as GPR120 agonist” (LG CHEM, LTD., priority 2014, dated 2022).

The EC50 is the concentration giving half of the maximal effect. Take `Cc1cc(OC2CCC2)nc(-c2cc(F)c(N3CC(CC(=O)O)C3)c(F)c2)n1` [Example 328, 2-[1-[4-[4-(cyclobutoxy)-6-methyl-pyrimidin-2-yl]-2,6-difluoro-phenyl]azetidin-3-yl]acetic acid]: the EC50 is 200 to 2000 nM. The same measure for `CC(C)COCc1cc(-c2cc(F)c(OCCCC(=O)O)c(F)c2)cs1` [Example 572, 4-[2,6-difluoro-4-(5-isobutoxymethyl-thiophen-3-yl)-phenoxy]-butanoic acid]: under 200 nM. For the compound `Oc1ccc(COc2c(F)cc(-c3cccnc3OC3CCCC3)cc2F)cn1` [Example 79, 5-[[4-[2-(cyclopentoxy)-3-pyridyl]-2,6-difluoro-phenoxy]methyl]pyridin-2-ol], the EC50 was in the range of 2000 to 20000 nM.

Take `O=C(O)CCCOc1c(F)cc(-c2cccc(OCC3CC3)n2)cc1Cl` [Example 401, 4-[2-chloro-4-(6-cyclopropylmethoxy-pyridin-2-yl)-6-fluoro-phenoxy]-butyric acid]: the EC50 was under 200 nM. Consider `O=C(O)CCc1ccc2cc(-c3cccc(Oc4ccccc4)n3)ccc2c1` [Example 141, 3-[6-(6-phenoxy-pyridin-2-yl)-naphthalen-2-yl]-propanoic acid], for which the EC50 is under 200 nM. The same measure for `CCCSc1ncccc1-c1cc(F)c(N(C)CCCC(=O)O)c(F)c1` [Example 207, 4-{[2,6-difluoro-4-(2-propylsulfanyl-pyridin-3-yl)-phenyl]-methyl-amino}-butyric acid]: under 200 nM; for `Cc1cc(OC2CCC2)nc(-c2cc(F)c(N(C)CCCC(=O)O)c(F)c2)n1` [Example 484, 4-[4-[4-(cyclobutoxy)-6-methyl-pyrimidin-2-yl]-2,6-difluoro-N-methyl-anilino]butanoic acid]: under 200 nM. The same measure for `CC(C)COc1ccnc(-c2cc(F)c(N3CCC(CC(=O)O)C3)c(F)c2)n1` (centres unmarked) [Example 502, 2-{1-[2,6-difluoro-4-(4-isobutoxy-pyrimidin-2-yl)phenyl]pyrrolidin-3-yl}acetic acid]: 200 to 2000 nM.

For `CC(CCCC(=O)O)c1c(F)cc(-c2cccc(NC3CCCC3)c2)cc1F` (centres unmarked) [Example 52, 5-(3′-cyclopentylamino-3,5-difluoro-biphenyl-4-yl)-hexanoic acid], the EC50 was under 200 nM. `CC(C)Sc1ncccc1-c1ccc(C(C)(C)CCCC(=O)O)cc1` [Example 159, 5-[4-(2-isopropylsulfanyl-pyridin-3-yl)-phenyl]-5-methyl-hexanoic acid]: the EC50 was under 200 nM. To `O=C(O)CCCOc1c(F)cc(-c2csc(OCC3CC3)n2)cc1F` [Example 397, 4-[4-[2-(cyclopropylmethoxy)thiazol-4-yl]-2,6-difluoro-phenoxy]butanoic acid] belongs under 200 nM; to `Cc1cc(OC2CCC2)nc(-c2cc(F)c(OCCCC(=O)O)c(F)c2)c1` [Example 395, 4-[4-[6-(cyclobutoxy)-4-methyl-2-pyridyl]-2,6-difluoro-phenoxy]butanoic acid], under 200 nM; to `Cc1cc(OC2CCC2)nc(-c2cc(F)c(N3CCC(CC(=O)O)C3)c(F)c2)n1` (centres unmarked) [Example 575, {1-[4-(4-cyclobutoxy-6-methyl-pyrimidin-2-yl)-2,6-difluoro-phenyl]-pyrrolidin-3-yl}-acetic acid], 200 to 2000 nM. As to `CC1(C)Cc2cc(Cl)cc(-c3cc(F)c(OCCCC(=O)O)c(F)c3)c2O1` [Example 253, 4-[4-(5-chloro-2,2-dimethyl-2,3-dihydro-benzofuran-7-yl)-2,6-difluoro-phenoxy]-butyric acid], the concentration for a half-maximal effect (EC50) fell in the range of 200 to 2000 nM. The same measure for `O=C(O)CC1CCN(c2c(F)cc(-c3cccnc3OCC3CC3)cc2F)CC1` [Example 121, 2-[1-[4-[2-(cyclopropylmethoxy)-3-pyridyl]-2,6-difluoro-phenyl]-4-piperidyl]acetic acid]: under 200 nM; for `O=C(O)CCC1CCc2cc(-c3cccc(OC4CCC4)n3)ccc2S1` (centres unmarked) [Example 441, 3-[6-[6-(cyclobutoxy)-2-pyridyl]thiochroman-2-yl]propanoic acid]: under 200 nM. To `CN(CCCC(=O)O)c1c(F)cc(-c2cccc(OC3CCCC3)c2)cc1F` [Example 525, 4-[(3′-cyclopentyloxy-3,5-difluoro-biphenyl-4-yl)-methyl-amino]-butyric acid] belongs under 200 nM; to `O=C(O)CCC1CCc2cc(-c3cccnc3OC3CCCC3)ccc2O1` (centres unmarked) [Example 10, 3-[6-(2-cyclopentyloxy-pyridin-3-yl)-chroman-2-yl]-propionic acid], under 200 nM. The same measure for `CC1(C)Cc2c(cccc2-c2cc(F)c(OCCCC(=O)O)c(F)c2)O1` [Example 291, 4-[4-(2,2-dimethyl-2,3-dihydro-benzofuran-4-yl)-2,6-difluoro-phenoxy]-butyric acid]: under 200 nM. Take `CC(C)Sc1ncccc1-c1cc(F)c(N2CCC(CC(=O)O)CC2)c(F)c1` [Example 104, 2-[1-[2,6-difluoro-4-(2-isopropylsulfanyl-3-pyridyl)phenyl]-4-piperidyl]acetic acid]: the EC50 is under 200 nM. To `CCSc1ncccc1-c1cc(F)c(C(C)CCCC(=O)O)c(F)c1` (centres unmarked) [Example 42, 5-[4-(2-ethylsulfanyl-3-pyridyl)-2,6-difluoro-phenyl]hexanoic acid] belongs under 200 nM; to `O=C(O)C1CC1CNc1c(F)cc(-c2cccnc2SC2CCCC2)cc1F` (centres unmarked) [Example 210, 2-{[4-(2-cyclopentylsulfanyl-pyridin-3-yl)-2,6-difluoro-phenylamino]-methyl}-cyclopropanecarboxylic acid], under 200 nM. To `CC1(C)Cc2c(ccc(F)c2-c2cc(F)c(OCCCC(=O)O)c(F)c2)N1` [Example 268, 4-[2,6-difluoro-4-(5-fluoro-2,2-dimethyl-2,3-dihydro-1H-indol-4-yl)-phenoxy]-butyric acid] belongs 200 to 2000 nM; to `CCOc1cccc(-c2cc(F)c(N3CCC(CCC(=O)O)CC3)c(F)c2)n1` [Example 622, 3-{1-[4-(6-ethoxy-pyridin-2-yl)-2,6-difluoro-phenyl]-piperidin-4-yl}-propionic acid], 200 to 2000 nM; to `CCCOc1ncccc1-c1cc(F)c(N2CCC(CC(=O)O)CC2)c(F)c1` [Example 120, 2-[1-[2,6-difluoro-4-(2-propoxy-3-pyridyl)phenyl]-4-piperidyl]acetic acid], 200 to 2000 nM. To `O=C(O)CCCSc1ccc(-c2cccc3c2OC2(CCCC2)O3)cc1` [Example 156, 4-(4-spiro[1,3-benzodioxol-2,1′-cyclopentane]-4-ylphenyl)sulfanylbutanoic acid] belongs 200 to 2000 nM; to `CN(CCCC(=O)O)c1c(F)cc(-c2ccccc2N2CCCC2)cc1F` [Example 221, 4-[(3,5-difluoro-2′-pyrrolidin-1-yl-biphenyl-4-yl)-methyl-amino]-butyric acid], under 200 nM.

As to `CN(CCCC(=O)O)c1ccc(-c2cccnc2SC2CCC2)cc1F` [Example 209, 4-{[4-(2-cyclobutylsulfanyl-pyridin-3-yl)-2-fluoro-phenyl]-methyl-amino}-butyric acid], the EC50 was under 200 nM. Turning to `CN(CCCC(=O)O)c1c(F)cc(-c2cccc(OCC3CC3)c2)cc1F` [Example 524, 4-[(3′-cyclopropylmethoxy-3,5-difluoro-biphenyl-4-yl)-methyl-amino]-butyric acid], the EC50 was under 200 nM.
